A short description of assay [1]: Superquenching of MS-PPE by AQS, flow cytometry. The settings on record: 10 μM AQS, 2.5×10^5 MS-PPE in 200 μL PBS. As for the experimental part: Bead suspensions of 2.5×10^5 PPE-coated microspheres in 200 μL PBS were analyzed using a FACScan flow cytometer (Becton-Dickinson, Sunnyvale, Calif.) with excitation at 488 nm. Fluorescence signals were acquired on the FL-1 channel (525 nm) using log amplification and analyzed with the CellQuest software.
The effect of the quencher, AQS, on the fluorescence of MS-PPE was determined by adding different concentrations of AQS and immediately reading the fluorescence by flow cytometry (FIG. 14A) or by fluorimetry (FIG. 14B). Adding AQS to the suspension of MS-PPE decreased the fluorescence emission intensity in an AQS-concentration-dependent manner (FIGS. 14A and B). The quenching of the MS-PPE as detected by both fluorimetry and flow cytometry, could be described by a conventional Stern-Volmer equation: Io/I=1+KSV[Q] where Io and I represent the fluorescence intensities in the absence and in presence of the AQS, and KSV is the Stern-Volmer quenching constant. However, the fluorimeter was not sensitive enough to detect the lower fluorescence (higher quenching) when AQS was added to MS-PPE at concentrations higher than 5 μM. The values of KSV obtained by flow cytometry and fluorimetry were 0.78×10^6 M^−1, and 0.79×10^6 M^−1, respectively. The correlation coefficient for the more sensitive flow cytometry was higher than that obtained by fluorimetry. […]
(In general: In flow cytometry, cells or beads pass a laser one at a time.)

Assay [2] has as its system DMPG lipid bilayer supported on MS-PPE. Briefly: Superquenching flow cytometric assay for disruption of DMPG lipid bilayer supported on MS-PPE. The class given is biochemical. Particulars: 10 μM AQS, no disruptor, real-time kinetics. As for the experimental part:
Lipid bilayers were disrupted by adding TRITON X-100 detergent to the bead suspension to a final concentration of 0.25% (w/v).
Bead suspensions of 2.5×10^5 DMPG-coated MS-PPE in 200 μL of PBS were analyzed using a FACScan flow cytometer (Becton-Dickinson, Sunnyvale, Calif.) with excitation at 488 nm. Fluorescence signals were acquired on FL-1 channel (525 nm) using log amplification and analyzed with the CellQuest software. Kinetic analysis of disruption of supported lipid bilayer by melittin was performed by acquiring real-time data with continuous mixing of samples (10^6 MS-PPE in 800 μl of PBS) using a magnetic stirrer. The raw data were analyzed using IDL Query software developed by Bruce Edwards (Cancer Center, University of New Mexico, Albuquerque, N. Mex.).
Because an anionic lipid was used to form a lipid bilayer around MS-PPE, it was expected that MLT will disrupt the DMPG lipid bilayer by such a detergent-like action. This was tested by adding 10 μM AQS to DMPG-coated MS-PPE followed by treatment with one of the following: TRITON X-100 detergent, synthetic MLT (sMLT), or natural MLT (nMLT) and immediately reading the fluorescence by flow cytometry. […] These histograms resemble the ones reported previously for MS-PPE, without a lipid coating, in absence and in presence of AQS.
From FIG. 18, the association constant (corresponding to the reciprocal of the point of half saturation) for nMLT and sMLT with DMPG were 5×10^6 M^−1 and 1.7×10^6 M^−1, respectively. […] Lower concentrations of nMLT, in comparison to sMLT, were required to disrupt the DMPG lipid bilayer. This might be attributed to the fact that nMLT contains some phospholipase A2 (PLA2) as a contaminant. PLA2 has a high affinity for anionic phospholipids, with an association constant of 0.5×10^10 M^−1 (Kim et al., Anal. Chem. 250, 109-116 (1997)), which is about 3000 fold higher than that of MLT. Although PLA2 activity requires calcium, which is not present in the experimental system, it has been reported that even upon addition of EDTA to natural MLT, PLA2 maintains its activity, probably due to formation of a tight complex with calcium with PLA2 (Dempsey, C. E. Biochim. Biophys. Acta 1990, 1031, 143-161).
The kinetics of disruption of supported lipid bilayer by MLT were monitored by measuring real-time changes in fluorescence intensity by flow cytometry (FIG. 19). Suspensions of 10^6 DMPG-coated MS-PPE in 800 μL of PBS were treated with AQS at a final concentration of 10 μM, then with either sMLT, TRITON X-100 detergent, or no treatment. […] Treatment with sMLT in the absence of AQS led to an increase in normalized fluorescence (FIG. 19, trace A). This can be attributed to disruption of the lipid bilayer by sMLT, and is consistent with a reversal of the slight quenching of fluorescence caused by the formation of a DMPG lipid bilayer over MS-PPE. Addition of AQS alone to DMPG-coated MS-PPE (FIG. 19, trace C) led to a 20% reduction in fluorescence as reported earlier. Addition of TRITON X-100 detergent to DMPG-coated MS-PPE after the addition of AQS (first dip in trace E, FIG. 19) caused immediate decrease in fluorescence to ˜10% of its original value (second dip in trace E, FIG. 19). In contrast, addition of sMLT, after the addition of AQS, (FIG. 19, trace D) led to a gradual reduction of fluorescence intensity to ˜20% of the original value. Although MLT forms dimers at high concentrations (Dempsey, C. E. Biochim. Biophys. Acta 1990, 1031, 143-161), it is monomeric at the concentrations used in this study. On the other hand, TRITON X-100 detergent forms micelles at the concentration used in this study.

In assay [3] the test system is anionic phospholipids. The experiment in a line: Affinity of PLA2 for anionic phospholipids (Kim et al.). The assay is classed as binding.
Assay [4] deals with anionic phospholipids. The settings on record: Kim et al. 1997; cited from earlier work.
The test system of assay [5] is cholesterol (10%, molar ratio) containing lipid membrane on porous particles. The experiment in a line: Release of dye from porous particles coated with cholesterol-containing lipid membrane by streptolysin-O. The assay is classed as biochemical. Particulars: even at low concentrations; 25° C. and 37° C. Here is the method: FIGS. 22A-B illustrate one aspect of the invention—drug and/or dye release from the present lipid-coated particles. FIG. 22A is a graph showing release of dye from porous particles (containing dye inside) where the particles are coated with a cholesterol (10%, molar ratio) containing lipid membrane. As increasing amounts of streptolysin-O are added (solid square symbols represent lower concentration than solid ovals), more dye is released. […] FIG. 22B illustrates how streptolysin-O can disrupt cholesterol-containing lipid bilayer membranes, leading to release of materials (e.g., drugs or antibiotics) enclosed within the membrane. Streptolysin-O is an anti-microbial protein that preferably binds to cholesterol and can disrupt cholesterol-containing membranes.

As for `O=C1c2ccc(S(=O)(=O)O)cc2C(=O)c2ccc(S(=O)(=O)O)cc21` [AQS, 9,10-anthraquinone-2,6-disulfonic acid], in assay [1], the “reduction in fluorescence (normalized mean channel fluorescence)” value worked out at 90%. Moreover, the “reduction in fluorescence of DMPG-coated MS-PPE on addition of AQS alone” value in assay [2] is 20%. On to “PLA2: phospholipase A2, lipolytic enzyme, contaminant of natural melittin”, for which, in the assay on anionic phospholipids [3], the “association constant higher than that of MLT” value is recorded as “about 3000 fold”. Further, in the assay on anionic phospholipids [4], the association constant was 5e+09 M⁻¹. For “streptolysin-O: anti-microbial protein that preferably binds to cholesterol and can disrupt cholesterol-containing membranes”, the “release of dye compared with control without streptolysin-O” value in assay [5] is reported as “greater than observed for control”.
